What was measured:
Assay type in all cases: in vivo, mouse
[1] = system: Tibialis anterior; experiment: Muscle regeneration after notexin injury of tibialis anterior
Method: Animals were anesthetized with ketamine (Imalgene1000 100 mg/Kg Merial) and Xylazine (Rompun2% 20 mg/Kg Bayer) prior to injury. Animals were hydrated and treated with analgesic (Buprenorphin Axience 0.3 mg/kg) twice a day for 4 d following injury. For the injury, mice were anesthetized as previously described and 10 μl of 12.5 μg/ml Notexin (Lotaxan) was injected in the Tibialis anterior. All protocols were reviewed by the Institut Pasteur, the competent authority, for compliance with the French and European regulations on Animal Welfare and with Public Health Service recommendations. This project has been reviewed and approved (#2013-0044) by the Institut Pasteur ethic committee (C2EA 89-CETEA).
(§1) Tibialis anterior (TA) was carefully dissected and snap frozen in liquid-nitrogen-cooled isopentane for a few minutes and stored at −80° C. prior to cryosectioning (10 μm sections). Sections were kept at room temperature overnight before staining. Sections were then rehydrated in PBS for 10 minutes and fixed in 10% formalin for 3 minutes. The sections were then routinely stained with haematoxylin and eosin (HE) using an automated stain machine or manually with red sirius.
(§2) Immunostaining was performed on cryosections fixed with 4% paraformaldehyde (PFA EMS#15710) in cold PBS, permeabilized with 0.5% Triton X-100 20 min at room temperature, washed, and blocked with 10% BSA for 30 min. Sections were incubated with primary antibodies overnight at 4° C. (see Table 1 below) and with Alexa-conjugated secondary antibodies 1/250 and Hoechst for 45 minutes. Sections were then analysed using an automated axioscan (Zeiss) or inverted Observer.Z1 Apotome (Zeiss). For apoptosis assessment, cells were collected in 2% serum, spun on polyD-lysine (Sigma-Aldrich#P6407), and immediately fixed with PFA 4%.
For image analysis (fibrosis quantification), ImageJ 1.46r software was using between 10 different photos randomly taken per section and 3 sections minimum per experimental group. The pictures were converted in a binary image and the pixel values then collected. For fibre size, the sections were immunostained with rabbit anti Laminin (Sigma-Aldrich #L9393) diluted at 1/200, overnight at 4° C. Secondary Donkey ant Rabbit 488 (DL488 JacksonImmuno #711486152) were used at 1/200 45 minutes at room temperature. The fibre perimeter was done automatically by using Pixcavator® software.

[2] = system: vessels; experiment: Vessel number in tibialis anterior of treated mice (Flk1GFP/+ or CD31 immunostaining)
Method: as §2
Throughout the study, focus was made on the tibialis anterior (TA). In skeletal muscle, SC are central for muscle repair. […] SC are localized close to capillaries and angiogenesis is known to be crucial for muscle repair SC survival with cellular interplays between vessel cells and SC. The number of vessels was therefore quantified. In control Flk1^GFP/+ mouse (placebo), the number of vessels was of 870±213.1 vessels per mm^2 and increased after 3 weeks of I.P treatment (1103±110.2 vessels per mm^2), and even more after 6 weeks (1384±175.3 vessels per mm^2, p=0.008) (FIG. 2e). Neovessels presented with normal histological appearance associating a basal lamina and a permeable lumen sometimes containing red blood cells. […] 841±137 CD31+ cells per mm^2 were counted in the placebo-treated mice vs. 2260±361 CD31+ cells per mm^2 in the fluoxetine-treated mice, p=0.008 (FIG. 2t-v), confirming the previous observation.
In order to investigate the effect of vortioxetine on vessels number, intra peritoneal (I.P) administration of 20 mg/kg of vortioxetine was performed for either 12 days, 3 or 6 weeks to C57Bl/6 mice (FIG. 10a). The number of CD31+ cells was counted by immunostaining. The number of vessels in the placebo is (863.5±115.6 vessels per mm^2) and increases after 12 days of I.P treatment (2274±926 vessels per mm^2, p=0.03), and even more after 3 weeks (2847±705 vessels per mm^2, p=0.02) (FIG. 10b). However, there was no statistically significant differences between 12 days and 3 weeks of treatment (p=0.49). Neovessels display a normal histological appearance associated with a basal lamina and a permeable lumen sometimes containing red blood cells. The daily administration of vortioxetine IP might cause unwanted peritoneal inflammation that could interfere with angiogenesis since inflammation and neovascularization are intertwined in some models. Vortioxetine was therefore administered per os (P.O) for 12 days: a similar increase in the number of vessels was observed (2451±595 vessels per mm^2 p=0.028, FIG. 10c). To further confirm those results, vortioxetine will be administered to Flk1^GFP/+ mice P.O and I.P for 12 days, and an ex vivo Matrigel angiogenesis assay and plasma from vortioxetine treated mice will be used on HUVEC (endothelial cells).

[3] = system: Mdx mice; experiment: Mdx mice (Duchenne muscular dystrophy model), muscle histology
Method: as §1, §2
The fiber size was also overall bigger in Mdx treated-animals (4.241±0.9 pixels in treated vs. 3.192±0.3 in placebo p=0.051) (FIG. 8b). […] The number of vessels increased in the treated mice (1459±327 vessels per mm^2) when compared to the placebo (942.4±113 vessels […], p=0.008) (FIG. 8e). […] This observation is in line with the decreased infiltration of inflammatory cells observed in the muscle (9.6±3.7 Gr1+ cells observed per section in the placebo vs. 4±2.4 Gr1+ cells in the treated mice p=0.04) (FIG. 8i).

[4] = system: satellite cells; experiment: Satellite cell (SC) number in tibialis anterior of treated mice (histological count or FACS cytometry); details: for Number of SC: Tg:Pax7nGFP mice
[5] = notexin injury after fluoxetine treatment
[6] = fluoxetine P.O. 6 weeks, Mdx mice

COc1ccc(NC(=O)c2ccc(-c3ccc(-c4noc(C)n4)cc3C)cc2)cc1N1CCN(C)CC1 [GR127935]
Effect of the antagonist on the beneficial effects of fluoxetine after injury ([1]; antagonist together with fluoxetine, SC, differentiating cells, fiber size, calcium deposits, fibrosis, Gr1 and F4/80 cells): suppressed the beneficial effects of fluoxetine treatment
Effect of GR127935 on the beneficial effects of vortioxetine after injury ([1]; vortioxetine 12 days-treatment plus GR127935, SC, differentiating cells, fiber size, calcium deposits, fibrosis, Gr1 and F4/80 cells): repressed the beneficial effects of the vortioxetine 12 days-treatment
Number of vessels ([2]; GR127935 in osmotic pump together with fluoxetine P.O 6 weeks, Flk1GFP/+ mice): 1028±173 vessels per mm^2
Beneficial effects of fluoxetine when co-treated with 5-HT1B inhibitor ([3]; Mdx mice treated with fluoxetine and a 5-HT1B inhibitor): the beneficial effects were lost
Number of SC ([4]; GR127935 in osmotic pump together with fluoxetine P.O 6 weeks): 4674±1414 SC per TA

CNCCC(Oc1ccc(C(F)(F)F)cc1)c1ccccc1 (centres unmarked) [fluoxetine]
Calcium deposits 14 days post-injury [1, 5]: 3.2±3 per mm^2
Differentiating (Myogenin+) cells 4 days post-injury vs placebo [1, 5]: more cells were already differentiating
Endomysial fibrosis 14 days post-injury [1, 5]: 2.2±0.7 % of total muscle area
F4/80 inflammatory cells 14 days post-injury [1, 5]: 4.7±2.7 cells per section
Gr1+ inflammatory cells 14 days post-injury [1, 5]: 4.1±2.6 cells per section
Number of fibers 14 days post-injury vs placebo [1, 5]: remained the same
Regenerating fiber size 14 days post-injury [1, 5]: 129±12.6 μm^2
Number of SC 4 days post-injury ([1]; notexin injury after fluoxetine treatment, Tg:Pax7nGFP mice): 459±283 per mm^2
Number of vessels 28 days post-injury vs placebo ([1]; notexin injury after fluoxetine treatment, p=0.036): higher
Number of SC 28 days post-injury vs placebo ([1]; notexin injury after fluoxetine treatment, p=0.076): higher
Number of SC per TA after 3 rounds of injury ([1]; several rounds of injury after fluoxetine treatment): remained constant
Number of vessels ([2]; fluoxetine 18 mg/kg I.P, 3 weeks, Flk1GFP/+ mouse): 1103±110.2 vessels per mm^2
Number of vessels ([2]; fluoxetine 18 mg/kg I.P, 6 weeks, Flk1GFP/+ mouse): 1384±175.3 vessels per mm^2
Number of vessels ([2]; fluoxetine P.O 6 weeks and PBS in osmotic pump, Flk1GFP/+ mice): 1949±576 vessels per mm^2
CD31+ cells on cryo-sectioned TA ([2]; fluoxetine P.O, 6 weeks, C57Bl/6 mice): 2260±361 CD31+ cells per mm^2
Number of vessels ([2]; fluoxetine P.O, 6 weeks, Flk1GFP/+ mouse): 1256±62.2 vessels per mm^2
Fiber size [3, 6]: 4.241±0.9 pixels
Foci of necrotic fiber (necrotic area) [3, 6]: 2890 ± 803 µm²
Gr1+ cells in the muscle [3, 6]: 4±2.4 cells per section
Number of cycling satellite cells vs placebo [3, 6]: decreased
Number of regenerating foci vs placebo [3, 6]: decreased
Number of vessels [3, 6]: 1459±327 vessels per mm^2
Number of SC by histological count ([4]; fluoxetine 18 mg/kg, tibialis anterior, TgPax7nGFP mouse): 16.3±5.4 SC per mm^2
Number of SC ([4]; fluoxetine P.O 6 weeks and PBS in osmotic pump): 7283±2325 SC per TA
